# Test results reported in article PMC11419154 (bioRxiv, 2024).
# “Also recorded” adds a separate entry of the source.
# Tests used:
# Type in all cases: cell-based, Drosophila melanogaster
# [1] = test system: Pickpocket (ppk RNAi in cIV da neurons); assay: Calcium imaging in cIV da neurons with ppk RNAi; details: versus attP genetic control; n = 6 neurons
# [2] = test system: dTRPA1-D; assay: Calcium imaging in cIII da neurons expressing dTRPA1-D; details: AITC application at time 0 s; n = 12 neurons
# [3] = test system: Balboa (bba RNAi in cIV da neurons); assay: Calcium imaging in cIV da neurons with bba RNAi; details: versus attP2 genetic control; n = 6 neurons
# [4] = test system: dTRPA1-C; assay: Calcium imaging in cIII da neurons expressing dTRPA1-C; details: AITC application at time 0 s; n = 12 neurons
# [5] = test system: class III dendritic arborizing (cIII da) neurons; assay: Confocal GCaMP6f calcium imaging in larval cIII da neurons; details: AITC application at time 0 s; n = 12 neurons
smiles,measurement,setting,value
"C=CCN=C=S [AITC, allyl isothiocyanate]","Calcium response with ppk RNAi, AITC",[1],did not strongly affect their responses to AITC; also recorded: respond to AITC similarly as genetic controls
same,"Calcium response of cIII da neurons expressing dTRPA1-D, AITC",[2],renders them responsive to AITC; also recorded: rendered them sensitive to AITC
same,"Calcium response with bba RNAi, AITC",[3],did not strongly affect their responses to AITC; also recorded: respond to AITC similarly as genetic controls
same,"Calcium response of cIII da neurons expressing dTRPA1-C, AITC",[4],renders them responsive to AITC; also recorded: rendered them sensitive to AITC
same,"Calcium response of cIII da neurons, AITC",[5],do not activate strongly in response to AITC
